Data as given in patent US10112958B2, “N-[2-(2-amino-6,6-disubstituted-4,4a,5,6-tetrahydropyrano[3,4-d][1,3]thiazin-8a(8H)-YL)-1,3-thiazol-4-YL] amides” (Pfizer Inc., priority 2015, dated 2018).

The compounds below were run against T1, BACE1 enzyme (Homo sapiens, UniProt P56817) (assay: BACE1 Cell-Free Assay (fluorescence polarization, cleavage of synthetic APP substrate)). Conditions: geometric mean of 2-4 determinations unless otherwise indicated (b: ≥5 determinations; c: single determination); 0.1 nM BACE1, 150 nM peptide substrate, pH 4.5, 3 hours at 37° C.
T1 construct: transfected with a soluble BACE construct (BACE1deltaTM96His); His (C); made in house; host or cells: CHO-K1 cells (secreted into conditioned media)
T1 sequence (P56817 46-457 limits assumed): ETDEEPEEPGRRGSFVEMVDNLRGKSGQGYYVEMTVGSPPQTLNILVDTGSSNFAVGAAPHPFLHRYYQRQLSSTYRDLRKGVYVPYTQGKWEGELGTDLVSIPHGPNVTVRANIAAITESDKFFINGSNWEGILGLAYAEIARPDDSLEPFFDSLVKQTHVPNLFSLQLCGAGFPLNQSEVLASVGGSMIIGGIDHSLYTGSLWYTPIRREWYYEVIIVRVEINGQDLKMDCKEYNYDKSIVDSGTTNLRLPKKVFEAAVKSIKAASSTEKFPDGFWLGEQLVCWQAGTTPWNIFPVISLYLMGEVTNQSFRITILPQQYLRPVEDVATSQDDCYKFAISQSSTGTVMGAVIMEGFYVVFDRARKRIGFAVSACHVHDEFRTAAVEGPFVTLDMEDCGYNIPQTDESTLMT
Assay type: biochemical
From the text: BACE1 Cell-Free Assay: Beta-secretase (BACE) is one of the enzymes involved in the generation of the amyloid beta peptide found in the amyloid plaques of Alzheimer's disease patients. This assay measures the inhibition of the beta-secretase enzyme as it cleaves a non-native peptide.
A synthetic APP substrate that can be cleaved by beta-secretase having N-terminal biotin and made fluorescent by the covalent attachment of Oregon Green at the Cys residue is used to assay beta-secretase activity in the presence or absence of the inhibitory compounds. The substrate is Biotin-GLTNIKTEEISEISY^EVEFR-C[Oregon Green]KK-OH. The BACE1 enzyme is affinity purified material from conditioned media of CHO-K1 cells that have been transfected with a soluble BACE construct (BACE1deltaTM96His). Compounds are incubated in a ½ log dose response curve from a top concentration of 100 μM with BACE1 enzyme and the biotinylated fluorescent peptide in 384-well black plates (Thermo Scientific #4318). BACE1 is at a final concentration of 0.1 nM with a final concentration of peptide substrate of 150 nM in a reaction volume of 30 μL assay buffer [100 mM sodium acetate, pH 4.5 (brought to pH with acetic acid), and 0.001% Tween-20]. Plates are covered and incubated for 3 hours at 37° C. The reaction is stopped with the addition of 30 μL of 1.5 μM Streptavidin (Pierce, #21125). After a 10 minute incubation at room temperature, plates are read on a PerkinElmer EnVision for fluorescence polarization (Ex485 nm/Em530 nm). The activity of the beta-secretase enzyme is detected by changes in the fluorescence polarization that occur when the substrate is cleaved by the enzyme.

Row | Structure (SMILES) | IC50
1 | NC1=N[C@@]2(c3nc(NC(=O)c4ccc(OC(F)F)cn4)cs3)COC3(COC3)C[C@H]2CS1 [Example 29, N-{2-[(4a′R,8a′R)-2′-amino-4a′,5′-dihydro-4′H-spiro[oxetane-3,6′-pyrano[3,4-d][1,3]thiazin]-8a′(8′H)-yl]-1,3-thiazol-4-yl}-5-(difluoromethoxy)pyridine-2-carboxamide] | 675 nM
2 | CC1(C)C[C@H]2CSC(N)=N[C@@]2(c2nc(NC(=O)c3ncc(OC(F)F)cc3Cl)cs2)CO1 [Example 30, N-{2-[(4aR,8aR)-2-amino-6,6-dimethyl-4,4a,5,6-tetrahydropyrano[3,4-d][1,3]thiazin-8a(8H)-yl]-1,3-thiazol-4-yl}-3-chloro-5-(difluoromethoxy)pyridine-2-carboxamide] | 59 nM
3 | CC1(C)C[C@H]2CSC(N)=N[C@@]2(c2nc(NC(=O)C(C)(C)F)cs2)CO1 [Example 31, N-{2-[(4aR,8aR)-2-amino-6,6-dimethyl-4,4a,5,6-tetrahydropyrano[3,4-d][1,3]thiazin-8a(8H)-yl]-1,3-thiazol-4-yl}-2-fluoro-2-methylpropanamide] | 911 nM
4 | COC(C)(C)C(=O)Nc1csc([C@]23COC(C)(C)C[C@H]2CSC(N)=N3)n1 [Example 32, N-{2-[(4aR,8aR)-2-amino-6,6-dimethyl-4,4a,5,6-tetrahydropyrano[3,4-d][1,3]thiazin-8a(8H)-yl]-1,3-thiazol-4-yl}-2-methoxy-2-methylpropanamide] | 1690 nM
5 | CC1(C)C[C@H]2CSC(N)=N[C@@]2(c2nc(NC(=O)C34CC(C3)C4)cs2)CO1 [Example 33, N-{2-[(4aR,8aR)-2-amino-6,6-dimethyl-4,4a,5,6-tetrahydropyrano[3,4-d][1,3]thiazin-8a(8H)-yl]-1,3-thiazol-4-yl} bicyclo[1.1.1]pentane-1-carboxamide] | 734 nM
6 | C[C@@]1(CF)C[C@H]2CSC(N)=N[C@@]2(c2nc(NC(=O)c3ccc(OC(F)F)cn3)cs2)CO1 [Example 34, N-{2-[(4aR,6S,8aR)-2-amino-6-(fluoromethyl)-6-methyl-4,4a,5,6-tetrahydropyrano[3,4-d][1,3]thiazin-8a(8H)-yl]-1,3-thiazol-4-yl}-5-(difluoromethoxy) pyridine-2-carboxamide] | 194 nM
7 | C[C@]1(CF)C[C@H]2CSC(N)=N[C@@]2(c2nc(NC(=O)c3ccc(OC(F)F)cn3)cs2)CO1 [Example 35, N-{2-[(4aR,6R,8aR)-2-amino-6-(fluoromethyl)-6-methyl-4,4a,5,6-tetrahydropyrano[3,4-d][1,3]thiazin-8a(8H)-yl]-1,3-thiazol-4-yl}-5-(difluoromethoxy) pyridine-2-carboxamide] | 176 nM
8 | CC[C@@]1(C)C[C@H]2CSC(N)=N[C@@]2(c2nc(NC(=O)c3ncc(OC(F)F)cc3C)cs2)CO1 [Example 36, N-{2-[(4aR,6S,8aR)-2-amino-6-ethyl-6-methyl-4,4a,5,6-tetrahydropyrano[3,4-d][1,3]thiazin-8a(8H)-yl]-1,3-thiazol-4-yl}-5-(difluoromethoxy)-3-methylpyridine-2-carboxamide] | 60 nM
9 | CC[C@@]1(C)C[C@H]2CSC(N)=N[C@@]2(c2nc(NC(=O)C3C4CC3C4)cs2)CO1 (stereo partly drawn) [Example 37, N-{2-[(4aR,6S,8aR)-2-amino-6-ethyl-6-methyl-4,4a,5,6-tetrahydropyrano[3,4-d][1,3]thiazin-8a(8H)-yl]-1,3-thiazol-4-yl}bicyclo[1.1.1]pentane-2-carboxamide] | 177 nM
10 | COC[C@]1(C)C[C@H]2CSC(N)=N[C@@]2(c2nc(NC(=O)c3ccc(OC(F)F)cn3)cs2)CO1 [Example 40, N-{2-[(4aR,6S,8aR)-2-amino-6-(methoxymethyl)-6-methyl-4,4a,5,6-tetrahydropyrano[3,4-d][1,3]thiazin-8a(8H)-yl]-1,3-thiazol-4-yl}-5-(difluoromethoxy) pyridine-2-carboxamide] | 2080 nM
11 | NC1=N[C@@]2(c3nc(NC(=O)c4ccc(F)cn4)cs3)COC3(CCC3)C[C@H]2CS1 [Example 41, N-{2-[(4a′R,8a′R)-2′-amino-4a′,5′-dihydro-4′H-spiro[cyclobutane-1,6′-pyrano[3,4-d] [1,3]thiazin]-8a′(8′H)-yl]-1,3-thiazol-4-yl}-5-fluoropyridine-2-carboxamide] | 714 nM
